Earlier results as cited in patent publication US20090291140A1, “TREATMENT OF DY[…] TRANSDERMAL ADMINISTRATION OF NONSTEROIDAL ANTI-INFLAMMATORY DRUGS” (priority 2008, published 2009).

Molecular target: T1, 5-lipoxygenase (Homo sapiens, UniProt P09917)
T1 sequence (P09917 1-674): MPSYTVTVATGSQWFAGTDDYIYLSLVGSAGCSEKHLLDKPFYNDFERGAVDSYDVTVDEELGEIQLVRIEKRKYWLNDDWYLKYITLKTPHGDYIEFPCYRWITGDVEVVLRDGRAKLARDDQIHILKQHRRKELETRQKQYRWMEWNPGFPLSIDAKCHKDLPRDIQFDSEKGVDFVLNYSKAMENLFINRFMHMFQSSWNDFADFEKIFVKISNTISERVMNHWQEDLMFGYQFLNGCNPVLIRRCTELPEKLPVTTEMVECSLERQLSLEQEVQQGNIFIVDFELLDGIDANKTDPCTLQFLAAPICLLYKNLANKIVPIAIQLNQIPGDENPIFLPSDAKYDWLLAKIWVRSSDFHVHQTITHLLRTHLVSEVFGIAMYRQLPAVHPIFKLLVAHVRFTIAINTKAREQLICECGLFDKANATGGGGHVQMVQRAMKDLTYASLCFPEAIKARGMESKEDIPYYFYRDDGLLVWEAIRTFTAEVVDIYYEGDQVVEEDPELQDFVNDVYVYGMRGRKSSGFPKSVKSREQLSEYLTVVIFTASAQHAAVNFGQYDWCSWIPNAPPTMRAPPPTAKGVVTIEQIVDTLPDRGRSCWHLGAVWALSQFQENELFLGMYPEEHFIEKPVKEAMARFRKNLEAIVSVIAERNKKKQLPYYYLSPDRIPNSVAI
Conditions: in-vitro studies

inhibition of the activity of 5-lipoxygenase: inhibit the activity of 5-lipoxygenase
Structure (SMILES): Cc1ccc(Cl)c(Nc2ccccc2C(=O)O)c1Cl [meclofenamate]
